Laboratory results: patent EP3120851A1, “4-AMINO-6-(2,6-DICHLOROPHENYL)-8-METHYL-2-(PHENYLAMINO)-PYRIDO[2,3-D]PYRIMIDIN-7(8H)-ONE FOR TREATMENT OF SOLID CANCERS” (Pangaea Biotech S.L., priority 2015, dated 2017)

Key:
Assay in all cases: radiometric protein kinase assay (33PanQinase Activity Assay)
Format in all cases: biochemical
Details in all cases: singlicate, read-out: residual activity
DDR2 wt = molecular target: T1, DDR2 wt (Homo sapiens, UniProt Q16832)
T1 construct: GST or His (not specified per kinase); purchased ProQinase (panel service); host or cells: Sf9 insect cells or E. coli
Description: (§1) In a first experiment, the kinase inhibition profile of the compound of formula (1) was evaluated at Proqinase (http://www.proqinase.com) by measuring residual activity values at a concentration of 10 µM of the test compound in singlicate in front of the following kinases: ABL2, EPHA3, CSF1-R, DDR2 wt, DDR2 N456 S, EGF-R d746-750, EGF-R d747-752/P753S, EGF-R G719C, EGF-R G719S, EGF-R L858R, EGF-R L861Q, EGF-R wt, EPHA1, EPHA2, EPHB1, ERBB4, LCK, MINK1, RAF1 Y340D/Y341D (untagged), RIPK2, STK17A. In a second experiment, the kinase inhibition profile of the compound of formula (1) was evaluated at Proqinase (http://www.proqinase.com) by measuring residual activity values at a concentration of 0.5 and 10 µM of the test compound in singlicate in front of a panel of 300 kinases using the following protocol:
(§2) The compounds were dissolved to 1 x 10^-03 M stock solutions in 100% DMSO. Subsequently, 100 µl of each stock solution were transferred into wells A3-F12 of a microtiter plate ("master plate"). Wells A1-F2 were filled with 100 µl 100% DMSO as controls. 5 x 10 µl of the master plate were aliquoted into 5 copy plates, which were stored at -20° Celsius until use. For the testing of each group of up to 8 kinases, one copy plate was used.
(§3) In the process, 90 µl H2O were added to each well of a copy plate. To minimize precipitation, the H2O was added to each well only a few minutes before the transfer of the compound solutions into the assay plates. The plate was shaken thoroughly, resulting in a "compound dilution plate" with a compound concentration of 1 x 10^-04 M/10 % DMSO. This plate was used for the transfer of 5 µl compound solution into the assay plates. The final volume of the assay was 50 µl. All compounds were tested at 1 x 10^-05 M in singlicate. The final DMSO concentration in the reaction cocktails was 1 % in all cases. The compound dilution plates were disposed at the end of each working day.
(§4) A radiometric protein kinase assay (^33PanQinase® Activity Assay) was used for measuring the kinase activity of the corresponding protein kinases. All kinase assays were performed in 96-well FlashPlatesTM from Perkin Elmer (Boston, MA, USA) in a 50 µl reaction volume. The reaction cocktail was pipetted in 4 steps in the following order: • 10 µl of non-radioactive ATP solution (in H2O) • 25 µl of assay buffer/ [γ-33P]-ATP mixture • 5 µl of test sample in 10% DMSO • 10 µl of enzyme/substrate mixture
(§5) The protein kinase reaction cocktails were incubated at 30°C for 60 minutes. The reaction was stopped with 50 µl of 2 % (v/v) H3PO4, plates were aspirated and washed two times with 200 µl 0.9 % (w/v) NaCl. All assays were performed with a BeckmanCoulter Biomek 2000/SL robotic system. Incorporation of ^33Pi (counting of "cpm") was determined with a microplate scintillation counter (Microbeta, Wallac).
(§6) All protein kinase assays were performed with a BeckmanCoulter Core robotic system.
(§7) All protein kinases provided by ProQinase were expressed in Sf9 insect cells or in E.coli as recombinant GST-fusion proteins or His-tagged proteins. All kinases were produced from human cDNAs and purified by either GSH-affinity chromatography or immobilized metal. Affinity tags were removed from a number of kinases during purification. The purity of the protein kinases was examined by SDS-PAGE/Coomassie staining, the identity was checked by mass spectroscopy.
(§8) Kinases from external vendors (CAR = Carna Biosciences Inc.; INV = Life Technologies (Invitrogen Corporation); MIL = Merck-Millipore (Millipore Corporation)) were expressed, purified and quality-controlled by virtue of the vendors readings.
(§9) For each kinase, the median value of the cpm of six wells of column 1 of each assay plate was defined as "low control" (n=6). This value reflects unspecific binding of radioactivity to the plate in the absence of a protein kinase but in the presence of the substrate. […]

EGF-R G719C = molecular target: T2, EGF-R G719C (Homo sapiens, UniProt P00533, G719C)
T2 construct: GST or His (not specified per kinase); purchased ProQinase (panel service); host or cells: Sf9 insect cells or E. coli
Description: as §1, §2, §3, §4, §5, §6, §7, §8, §9

EPHA2 = molecular target: T3, EPHA2 (Homo sapiens, UniProt P29317)
T3 construct: GST or His (not specified per kinase); purchased ProQinase (panel service); host or cells: Sf9 insect cells or E. coli
Description: as §1, §2, §3, §4, §5, §6, §7, §8, §9

ABL2 = molecular target: T4, ABL2 (Homo sapiens, UniProt P42684)
T4 construct: GST or His (not specified per kinase); purchased ProQinase (panel service); host or cells: Sf9 insect cells or E. coli
Description: as §1, §2, §3, §4, §5, §6, §7, §8, §9

EGF-R G719S = molecular target: T5, EGF-R G719S (Homo sapiens, UniProt P00533, G719S)
T5 construct: GST or His (not specified per kinase); purchased ProQinase (panel service); host or cells: Sf9 insect cells or E. coli
T5 sequence (P00533 25-1210 G719S): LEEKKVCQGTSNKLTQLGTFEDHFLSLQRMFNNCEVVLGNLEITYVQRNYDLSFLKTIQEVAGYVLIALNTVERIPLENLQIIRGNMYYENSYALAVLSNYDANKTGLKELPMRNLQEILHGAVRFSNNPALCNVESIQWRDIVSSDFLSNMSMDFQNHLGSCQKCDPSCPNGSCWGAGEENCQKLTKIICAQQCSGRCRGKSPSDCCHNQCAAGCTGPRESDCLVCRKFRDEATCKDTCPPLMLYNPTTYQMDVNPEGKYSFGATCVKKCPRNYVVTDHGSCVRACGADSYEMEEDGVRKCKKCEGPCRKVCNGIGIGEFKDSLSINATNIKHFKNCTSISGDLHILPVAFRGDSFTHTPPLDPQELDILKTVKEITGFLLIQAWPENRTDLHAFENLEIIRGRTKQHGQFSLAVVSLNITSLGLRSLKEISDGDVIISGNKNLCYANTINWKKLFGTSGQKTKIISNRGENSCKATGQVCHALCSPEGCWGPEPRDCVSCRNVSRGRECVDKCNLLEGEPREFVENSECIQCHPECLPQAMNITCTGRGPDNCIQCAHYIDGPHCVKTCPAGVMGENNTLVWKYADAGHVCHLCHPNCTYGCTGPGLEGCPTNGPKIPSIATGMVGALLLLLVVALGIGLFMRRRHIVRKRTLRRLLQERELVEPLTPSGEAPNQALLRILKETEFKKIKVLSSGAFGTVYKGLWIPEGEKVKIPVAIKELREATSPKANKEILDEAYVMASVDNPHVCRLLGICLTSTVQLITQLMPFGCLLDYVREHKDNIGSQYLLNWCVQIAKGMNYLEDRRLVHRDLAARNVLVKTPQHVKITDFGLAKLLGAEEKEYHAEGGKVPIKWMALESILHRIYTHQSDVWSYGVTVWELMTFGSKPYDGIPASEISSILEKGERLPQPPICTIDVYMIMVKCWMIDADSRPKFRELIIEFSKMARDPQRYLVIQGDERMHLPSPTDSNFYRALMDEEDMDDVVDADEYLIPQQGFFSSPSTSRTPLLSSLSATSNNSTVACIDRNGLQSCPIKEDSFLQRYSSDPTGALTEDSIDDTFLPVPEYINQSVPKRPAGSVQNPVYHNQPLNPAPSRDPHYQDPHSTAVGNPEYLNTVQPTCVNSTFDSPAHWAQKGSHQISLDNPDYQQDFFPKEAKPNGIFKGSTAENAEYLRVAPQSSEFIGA
Description: as §1, §2, §3, §4, §5, §6, §7, §8, §9

EPHA1 = molecular target: T6, EPHA1 (Homo sapiens, UniProt P21709)
T6 construct: GST or His (not specified per kinase); purchased ProQinase (panel service); host or cells: Sf9 insect cells or E. coli
Description: as §1, §2, §3, §4, §5, §6, §7, §8, §9

EGF-R L861Q = molecular target: T7, EGF-R L861Q (Homo sapiens, UniProt P00533, L861Q)
T7 construct: GST or His (not specified per kinase); purchased ProQinase (panel service); host or cells: Sf9 insect cells or E. coli
Description: as §1, §2, §3, §4, §5, §6, §7, §8, §9

EGF-R wt = molecular target: T8, EGF-R wt (Homo sapiens, UniProt P00533)
T8 construct: GST or His (not specified per kinase); purchased ProQinase (panel service); host or cells: Sf9 insect cells or E. coli
Description: as §1, §2, §3, §4, §5, §6, §7, §8, §9

EGF-R L858R = molecular target: T9, EGF-R L858R (Homo sapiens, UniProt P00533, L858R)
T9 construct: GST or His (not specified per kinase); purchased ProQinase (panel service); host or cells: Sf9 insect cells or E. coli
Description: as §1, §2, §3, §4, §5, §6, §7, §8, §9

[1] = molecular target: T10, RAF1 Y340D/Y341D (untagged) (Homo sapiens, UniProt P04049, Y340D/Y341D)
T10 construct: purchased ProQinase (panel service); host or cells: Sf9 insect cells or E. coli
T10 sequence (P04049 whole entry Y340D/Y341D): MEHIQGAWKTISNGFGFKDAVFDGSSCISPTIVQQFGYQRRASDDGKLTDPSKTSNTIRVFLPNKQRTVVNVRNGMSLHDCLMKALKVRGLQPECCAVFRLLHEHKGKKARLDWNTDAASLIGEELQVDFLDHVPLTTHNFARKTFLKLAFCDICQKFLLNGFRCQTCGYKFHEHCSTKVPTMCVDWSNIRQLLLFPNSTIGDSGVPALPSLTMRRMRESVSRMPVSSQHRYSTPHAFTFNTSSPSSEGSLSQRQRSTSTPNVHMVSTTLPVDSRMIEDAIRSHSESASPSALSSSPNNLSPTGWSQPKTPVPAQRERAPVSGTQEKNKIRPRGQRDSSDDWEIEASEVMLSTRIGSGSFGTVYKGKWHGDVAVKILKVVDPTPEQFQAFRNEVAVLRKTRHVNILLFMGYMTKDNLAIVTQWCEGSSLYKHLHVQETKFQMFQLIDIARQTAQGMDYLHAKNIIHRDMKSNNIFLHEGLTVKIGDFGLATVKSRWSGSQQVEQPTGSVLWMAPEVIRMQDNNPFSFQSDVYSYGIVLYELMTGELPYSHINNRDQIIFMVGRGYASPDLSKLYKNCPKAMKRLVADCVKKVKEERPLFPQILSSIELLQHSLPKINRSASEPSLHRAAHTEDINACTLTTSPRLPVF
Description: as §1, §2, §3, §4, §5, §6, §7, §8, §9

EGF-R d746-750 = molecular target: T11, EGF-R d746-750 (Homo sapiens, UniProt P00533, DEL746-750)
T11 construct: GST or His (not specified per kinase); purchased ProQinase (panel service); host or cells: Sf9 insect cells or E. coli
Description: as §1, §2, §3, §4, §5, §6, §7, §8, §9

ERBB4 = molecular target: T12, ERBB4 (Homo sapiens, UniProt Q15303)
T12 construct: GST or His (not specified per kinase); purchased ProQinase (panel service); host or cells: Sf9 insect cells or E. coli
T12 sequence (Q15303 26-1308): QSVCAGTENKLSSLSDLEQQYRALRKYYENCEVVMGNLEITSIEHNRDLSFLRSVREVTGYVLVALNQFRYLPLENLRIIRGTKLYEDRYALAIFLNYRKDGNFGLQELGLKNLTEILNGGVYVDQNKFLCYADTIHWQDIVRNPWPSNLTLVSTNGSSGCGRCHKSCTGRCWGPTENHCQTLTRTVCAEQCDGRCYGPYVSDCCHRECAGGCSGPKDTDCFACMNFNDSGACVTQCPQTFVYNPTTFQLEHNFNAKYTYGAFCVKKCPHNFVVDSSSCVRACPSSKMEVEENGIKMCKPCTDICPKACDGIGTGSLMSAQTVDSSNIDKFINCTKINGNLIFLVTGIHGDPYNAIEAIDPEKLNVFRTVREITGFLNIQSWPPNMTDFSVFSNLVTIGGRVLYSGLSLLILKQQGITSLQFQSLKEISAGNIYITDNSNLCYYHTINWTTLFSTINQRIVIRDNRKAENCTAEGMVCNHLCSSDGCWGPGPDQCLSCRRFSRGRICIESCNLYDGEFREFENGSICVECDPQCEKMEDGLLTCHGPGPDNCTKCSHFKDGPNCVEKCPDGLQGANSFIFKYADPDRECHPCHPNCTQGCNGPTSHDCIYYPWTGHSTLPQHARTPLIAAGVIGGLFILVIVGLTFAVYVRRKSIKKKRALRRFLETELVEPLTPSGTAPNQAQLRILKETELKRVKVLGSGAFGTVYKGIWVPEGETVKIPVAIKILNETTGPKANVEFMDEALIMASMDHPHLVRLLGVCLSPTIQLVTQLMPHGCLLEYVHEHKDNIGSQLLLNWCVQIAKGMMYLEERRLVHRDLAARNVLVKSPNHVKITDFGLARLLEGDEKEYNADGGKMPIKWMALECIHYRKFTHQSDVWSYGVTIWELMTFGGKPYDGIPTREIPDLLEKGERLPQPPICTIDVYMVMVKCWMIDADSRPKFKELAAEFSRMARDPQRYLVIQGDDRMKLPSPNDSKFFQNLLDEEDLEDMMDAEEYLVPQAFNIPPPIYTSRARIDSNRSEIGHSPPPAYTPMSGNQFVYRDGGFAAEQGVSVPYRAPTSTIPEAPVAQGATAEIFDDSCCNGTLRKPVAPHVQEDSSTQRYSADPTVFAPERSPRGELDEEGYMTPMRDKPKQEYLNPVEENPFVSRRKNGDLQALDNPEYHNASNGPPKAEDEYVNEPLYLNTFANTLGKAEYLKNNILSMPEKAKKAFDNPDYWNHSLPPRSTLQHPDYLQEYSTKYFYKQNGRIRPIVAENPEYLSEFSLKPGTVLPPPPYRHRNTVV
Description: as §1, §2, §3, §4, §5, §6, §7, §8, §9

EPHA3 = molecular target: T13, EPHA3 (Homo sapiens, UniProt P29320)
T13 construct: GST or His (not specified per kinase); purchased ProQinase (panel service); host or cells: Sf9 insect cells or E. coli
T13 sequence (P29320 21-983): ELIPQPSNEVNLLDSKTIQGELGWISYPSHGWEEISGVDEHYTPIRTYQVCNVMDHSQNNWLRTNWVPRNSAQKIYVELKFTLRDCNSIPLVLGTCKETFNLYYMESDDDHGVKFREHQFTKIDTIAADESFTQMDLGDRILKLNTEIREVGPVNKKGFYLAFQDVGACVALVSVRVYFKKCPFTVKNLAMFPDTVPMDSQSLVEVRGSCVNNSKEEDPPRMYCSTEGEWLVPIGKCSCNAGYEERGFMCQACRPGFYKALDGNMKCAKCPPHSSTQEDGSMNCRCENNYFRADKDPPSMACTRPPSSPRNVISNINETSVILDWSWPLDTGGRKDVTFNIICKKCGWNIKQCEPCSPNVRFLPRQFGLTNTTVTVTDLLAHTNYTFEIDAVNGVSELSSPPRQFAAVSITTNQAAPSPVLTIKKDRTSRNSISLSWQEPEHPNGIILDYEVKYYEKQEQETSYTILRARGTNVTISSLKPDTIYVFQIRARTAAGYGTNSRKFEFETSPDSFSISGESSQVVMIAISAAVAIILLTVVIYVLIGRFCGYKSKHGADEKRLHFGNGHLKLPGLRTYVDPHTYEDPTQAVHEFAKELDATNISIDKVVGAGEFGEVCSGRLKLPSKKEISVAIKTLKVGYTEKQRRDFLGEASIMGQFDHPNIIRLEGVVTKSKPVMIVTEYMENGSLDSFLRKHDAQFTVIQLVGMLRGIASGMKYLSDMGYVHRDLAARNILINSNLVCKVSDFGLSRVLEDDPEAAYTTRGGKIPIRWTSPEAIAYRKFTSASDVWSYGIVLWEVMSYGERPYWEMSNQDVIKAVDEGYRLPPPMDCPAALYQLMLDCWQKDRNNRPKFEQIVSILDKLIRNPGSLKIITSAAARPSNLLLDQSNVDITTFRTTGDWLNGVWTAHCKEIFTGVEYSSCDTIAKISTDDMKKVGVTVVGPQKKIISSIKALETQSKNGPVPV
Description: as §1, §2, §3, §4, §5, §6, §7, §8, §9

EPHB1 = molecular target: T14, EPHB1 (Homo sapiens, UniProt P54762)
T14 construct: GST or His (not specified per kinase); purchased ProQinase (panel service); host or cells: Sf9 insect cells or E. coli
T14 sequence (P54762 18-984): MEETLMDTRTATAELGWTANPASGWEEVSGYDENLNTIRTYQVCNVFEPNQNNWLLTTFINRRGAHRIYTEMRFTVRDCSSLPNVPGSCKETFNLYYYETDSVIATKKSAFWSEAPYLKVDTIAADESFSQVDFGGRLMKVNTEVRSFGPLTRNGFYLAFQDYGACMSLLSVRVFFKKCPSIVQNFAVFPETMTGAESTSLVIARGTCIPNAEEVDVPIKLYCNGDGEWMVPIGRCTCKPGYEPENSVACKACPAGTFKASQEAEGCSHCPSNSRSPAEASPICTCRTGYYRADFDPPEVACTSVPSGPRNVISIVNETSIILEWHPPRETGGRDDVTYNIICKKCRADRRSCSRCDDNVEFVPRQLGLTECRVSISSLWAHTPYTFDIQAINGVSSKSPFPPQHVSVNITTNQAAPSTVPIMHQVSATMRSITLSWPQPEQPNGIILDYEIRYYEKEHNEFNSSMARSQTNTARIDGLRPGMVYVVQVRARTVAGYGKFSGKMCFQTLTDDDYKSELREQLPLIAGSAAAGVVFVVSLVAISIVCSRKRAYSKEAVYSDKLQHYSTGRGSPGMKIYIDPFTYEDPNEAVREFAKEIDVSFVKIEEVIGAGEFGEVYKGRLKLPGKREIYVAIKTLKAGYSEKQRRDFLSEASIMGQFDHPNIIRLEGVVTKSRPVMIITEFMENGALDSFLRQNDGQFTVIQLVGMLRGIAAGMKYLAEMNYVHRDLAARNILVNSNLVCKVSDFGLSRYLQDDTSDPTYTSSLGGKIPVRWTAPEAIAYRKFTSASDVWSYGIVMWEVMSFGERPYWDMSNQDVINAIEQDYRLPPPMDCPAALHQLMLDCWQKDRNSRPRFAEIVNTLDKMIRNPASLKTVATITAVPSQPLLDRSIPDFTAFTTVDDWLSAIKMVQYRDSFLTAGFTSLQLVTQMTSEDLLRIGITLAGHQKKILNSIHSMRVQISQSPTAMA
Description: as §1, §2, §3, §4, §5, §6, §7, §8, §9

remaining activity at 0.5 µM (DDR2 wt; 0.5 µM test compound): 10% | remaining activity at 10 µM (DDR2 wt; 10 µM test compound): 4% | remaining activity at 0.5 µM (EGF-R G719C; 0.5 µM test compound): 29% | remaining activity at 10 µM (EGF-R G719C; 10 µM test compound): 6% | remaining activity at 0.5 µM (EPHA2; 0.5 µM test compound): 54% | remaining activity at 10 µM (EPHA2; 10 µM test compound): 9% | remaining activity at 0.5 µM (ABL2; 0.5 µM test compound): 44% | remaining activity at 10 µM (ABL2; 10 µM test compound): 13% | remaining activity at 0.5 µM (EGF-R G719S; 0.5 µM test compound): 39% | remaining activity at 10 µM (EGF-R G719S; 10 µM test compound): 3% | remaining activity at 0.5 µM (EPHA1; 0.5 µM test compound): 54% | remaining activity at 10 µM (EPHA1; 10 µM test compound): 13% | remaining activity at 0.5 µM (EGF-R L861Q; 0.5 µM test compound): 36% | remaining activity at 10 µM (EGF-R L861Q; 10 µM test compound): 8% | remaining activity at 0.5 µM (EGF-R wt; 0.5 µM test compound): 47% | remaining activity at 10 µM (EGF-R wt; 10 µM test compound): 16% | remaining activity at 0.5 µM (EGF-R L858R; 0.5 µM test compound): 49% | remaining activity at 10 µM (EGF-R L858R; 10 µM test compound): 10% | remaining activity at 0.5 µM ([1]; 0.5 µM test compound): 57% | remaining activity at 10 µM ([1]; 10 µM test compound): 25% | remaining activity at 0.5 µM (EGF-R d746-750; 0.5 µM test compound): 28% | remaining activity at 10 µM (EGF-R d746-750; 10 µM test compound): 10% | remaining activity at 0.5 µM (ERBB4; 0.5 µM test compound): 52% | remaining activity at 10 µM (ERBB4; 10 µM test compound): 7% | remaining activity at 0.5 µM (EPHA3; 0.5 µM test compound): 9% | remaining activity at 10 µM (EPHA3; 10 µM test compound): 36% | remaining activity at 0.5 µM (EPHB1; 0.5 µM test compound): 57% | remaining activity at 10 µM (EPHB1; 10 µM test compound): 5%
Compound: Cn1c(=O)c(-c2c(Cl)cccc2Cl)cc2c(N)nc(Nc3ccccc3)nc21 [Compound (1), 4-amino-6-(2,6-dichlorophenyl)-8-methyl-2-(phenylamino)-pyrido[2,3-d]pyrimidin-7(8H)-one]
